Test results taken from PMC6991140 (Journal of the American Chemical Society, 2017).

Molecular target: T1, asialoglycoprotein receptor (ASGPR) (Homo sapiens, UniProt P07306)
T1 sequence (P07306 1-291): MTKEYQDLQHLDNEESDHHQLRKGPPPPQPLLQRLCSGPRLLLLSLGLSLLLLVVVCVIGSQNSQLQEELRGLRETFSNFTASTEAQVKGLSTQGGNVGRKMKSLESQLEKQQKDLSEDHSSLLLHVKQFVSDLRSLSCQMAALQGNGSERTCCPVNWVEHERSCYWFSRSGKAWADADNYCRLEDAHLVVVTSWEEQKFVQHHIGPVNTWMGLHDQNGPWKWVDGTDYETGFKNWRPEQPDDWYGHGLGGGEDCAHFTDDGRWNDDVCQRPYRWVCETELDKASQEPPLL
Assay: Surface plasmon resonance binding to immobilized ASGPR
Conditions: calculated from 1/Kads

CC(=O)N[C@H]1C(O)O[C@H](CO)[C@H](O)[C@@H]1O (mixture of isomers) [GalNAc, N-acetylgalactosamine]
calculated ligand efficiency (LE): 0.41
